# Experimental data: the supplement of paper PMC7224384
# What was measured:
# [1] = test system: MDA-MB-453; experiment: drug sensitivity score (DSS), single agent (DSS (weighted AUC score)); higher = more sensitive (stronger viability decrease); extreme values may be limits of the assay; settings: BLU9931 0 nM; 72 h
# Outline: (§1)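 Compounds from the FIMM Oncology set were predispensed in singlicate at five 10-fold dilutions (10,000-fold range) on 384-well plates. Each well then received 2000 MDA-MB-453 cells in medium with or without an FGFR4 inhibitor (100 nM final) and was kept at 37 °C, 5% CO2. Cellular ATP was read with CellTiterGlo 2.0 after 72 h and normalised per plate to percent viability from control wells. The drug sensitivity score is a weighted area under a four-parameter logistic fit.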
# [2] = test system: MDA-MB-453; experiment: drug sensitivity score (DSS), in combination with BLU9931 (DSS (weighted AUC score)); higher = more sensitive (stronger viability decrease); extreme values may be limits of the assay; settings: BLU9931 100 nM; 72 h
# Outline: as §1
SMILES,drug sensitivity score [1],drug sensitivity score [2]
CN[C@@H]1C[C@H]2O[C@@](C)([C@@H]1OC)n1c3ccccc3c3c4c(c5c6ccccc6n2c5c31)C(=O)N[C@H]4O [UCN-01],18.2,16
O=C(CCCCCCC(=O)Nc1ccc([C@H]2O[C@@H](CSc3nc(-c4ccccc4)c(-c4ccccc4)o3)C[C@@H](c3ccc(CO)cc3)O2)cc1)NO [Tubacin],2,1.7
Nc1ncnc2c1nc(N)n2[C@@H]1O[C@H](CO)[C@@H](O)[C@H]1O [8-amino-adenosine],22.4,25
C[C@@H]1CCN(C(=O)CC#N)C[C@@H]1N(C)c1ncnc2[nH]ccc12 [Tofacitinib],0,0
COc1cc2c(cc1-c1c(C)noc1C)ncc1[nH]c(=O)n([C@H](C)c3ccccn3)c12 [I-BET151],11.5,11.4
COC[C@H](NC(=O)c1cnc(C)s1)C(=O)N[C@@H](COC)C(=O)N[C@@H](Cc1ccccc1)C(=O)[C@@]1(C)CO1 [Oprozomib],14.8,12.3
CCNC(=O)C[C@@H]1N=C(c2ccc(Cl)cc2)c2cc(OC)ccc2-n2c(C)nnc21 [Molibresib],10,9.8
CC[C@@H]1C(=O)N(C)c2cnc(Nc3ccc(C(=O)NC4CCN(C)CC4)cc3OC)nc2N1C1CCCC1 [BI 2536],10.4,9.2
CCN(CC)CCNC(=O)c1c(C)[nH]c(/C=C2\C(=O)Nc3ccc(F)cc32)c1C [Sunitinib],0.2,0
Nc1ccccc1NC(=O)c1ccc(CNc2nccc(-c3cccnc3)n2)cc1 [Mocetinostat],16,17.7
COCCOc1cnc2ccn([C@H](C)c3nnc4c(F)cc(-c5cnn(C)c5)cn34)c(=O)c2c1 [AMG-337],0,0
O=C(O)C(=O)O.[NH-][C@@H]1CCCC[C@H]1[NH-].[Pt+2] [Oxaliplatin],8.2,7
COc1cc([C@@H]2c3cc4c(cc3[C@@H](O[C@@H]3O[C@@H]5CO[C@@H](c6cccs6)O[C@H]5[C@H](O)[C@H]3O)[C@H]3COC(=O)[C@H]23)OCO4)cc(OC)c1O [Teniposide],0,0
O=C1CCc2c(Oc3ccc4c(c3)[C@@H]3[C@H](O4)[C@H]3c3nc4cc(C(F)(F)F)ccc4[nH]3)ccnc2N1 [BGB-283],3.6,1.3
O=C(NC1CCNCC1)c1n[nH]cc1NC(=O)c1c(Cl)cccc1Cl [AT7519],13.2,14.6
C=C(c1ccc(C(=O)O)cc1)c1cc2c(cc1C)C(C)(C)CCC2(C)C [Bexarotene],0,0
O=c1[nH]c(=O)n([C@H]2C[C@H](O)[C@@H](CO)O2)cc1C(F)(F)F [Trifluridine],2.6,1.2
CN(C)c1cc2c(cc1Sc1nc3c(N)nccc3n1CCNCC(C)(C)C)OCO2 [CUDC-305],17.6,15.9
CO[C@H]1C[C@@H]2CC[C@@H](C)[C@@](O)(O2)C(=O)C(=O)N2CCCC[C@H]2C(=O)O[C@H]([C@H](C)C[C@@H]2CC[C@@H](OP(C)(C)=O)[C@H](OC)C2)CC(=O)[C@H](C)/C=C(\C)[C@@H](O)[C@@H](OC)C(=O)[C@H](C)C[C@H](C)/C=C/C=C/C=C/1C [Ridaforolimus],9.5,14.7
CN(C)C(=N)NC(=N)N [Metformin],0,0
O=C(Nc1nc2cccc(-c3ccc(CN4CCS(=O)(=O)CC4)cc3)n2n1)C1CC1 [Filgotinib],2.9,2.5
CCN(CC)CCN(Cc1ccc(-c2ccc(C(F)(F)F)cc2)cc1)C(=O)Cn1c(SCc2ccc(F)cc2)nc(=O)c2c1CCC2 [Darapladib],1.5,0
